Results: US9440989B2, “Antifibrinolytic compounds” (PROYECTO DE BIOMEDICINA CIMA, S.L., priority 2012, dated 2016)
Marks after values point to notes of the source that are not given here.

Experiments:
[1] = tested on: tPA-prolonged tail bleeding in wild type mice (C57/Bl6); assay: Tail bleeding assay, hyperfibrinolytic bleeding model (tPA 0.5 mg/kg); assay type: in vivo; settings: n≧10
Procedure: (§1) Bleeding time was evaluated in 2 months old wild-type C57B16 (n=10) mice by removing the tail tip. Mice (20-25 g) were anaesthetized with 2.5% isoflurane and maintained at 37° C. on heating pads. The hemostatic efficacy was evaluated in 2 models, traditional bleeding model and hyperfibrinolytic bleeding model.
Hyperfibrinolytic bleeding model, consisted in injection of 0.5 mg/kg tPA into the ocular plexus to prolong bleeding time due to excessive fibrinolysis. […] The catheter was connected to a syringe pump (AL-1000, WPI) for the infusion of 200 μL (10% bolus, 90% perfusion during 40 minutes) of tested agents. Then, tPA (0.5 mg/kg) was injected into the ocular plexus and five minutes after tPA administration, saline or the different compounds was infused through the femoral catheter to ensure systemic distribution of all the agents. Reference compounds, TXA and Aprotinin, were administered at 300 and 10 mg/Kg respectively; however, all compounds of the invention were administered at 1 mg/Kg. Five minutes later, 5 mm of tail tip were removed using a scalpel blade and the tail tip bathed in 1 mL of sterile saline at 37° C.
The time of bleeding was defined as the interval between initial transections and the visual cessation of bleeding, that was measured up to 30 minutes. A value of 30 min was assigned to those animals bleeding longer than the observation period. […] Bleeding time was determined in wild type mice (C57/Bl6), where n≧10 per assayed compound; therefore, BT is reported as a mean value—in the case of saline, BT is reported as mean±ESM.

[2] = tested on: human blood (whole blood clot lysis, tPA); assay: Thromboelastometry (ROTEM, modified in-tem with tPA): whole blood clot formation and lysis, human blood; settings: Homo sapiens, read-out: EC50LT (effective concentration to delay lysis time by 50%)
Procedure: A modification of in-tem test as described below was used for the examination of antifibrinolytic effects of tested compounds and its interaction with platelets in citrated blood.
In a pre-warmed cuvette and holder 1 μL of Tissue plasminogen activator (tPA) (150,000 U/mL, Actylise), 20 μL of start-tem reagent (CaCl2), 20 μL of in-tem reagent (activators of coagulation system), 3 μL of DMSO (control) or tested compounds (CMs) in DMSO and 300 μL of citrated blood pre-warmed were pipetted. The cup holder containing the sample mixture was placed immediately on the appropriate channel. The measurement was recorded for 60 min to allow clot formation and lysis.

[3] = tested on: mice blood (whole blood clot lysis, tPA); assay: Thromboelastometry (ROTEM, modified in-tem with tPA): whole blood clot formation and lysis, mice blood; assay type: cell-based; settings: Mus musculus, read-out: EC50LT (effective concentration to delay lysis time by 50%), assayed concentrations 1000-0.2 μM
[4] = tested on: tail bleeding in wild-type C57B16 mice; assay: Tail bleeding assay, traditional bleeding model; assay type: in vivo; settings: intraperitoneal 4 mg/mouse, 160 mg/Kg, tail tip removed 30 min after injection, n = 10
Procedure: as §1
Traditional bleeding model consisted in intraperitoneal injection of different compounds (4 mg/mouse, 160 mg/Kg) dissolved in 2% carboxymethyl cellulose or vehicle. Thirty minutes after injection, 5 mm of tail tip were removed using a scalpel blade and the tail tip bathed in 1 mL of sterile saline at 37° C. The time to cessation of bleeding was measured up to 30 min. The time of bleeding was defined as the interval between initial transection and the visual cessation of bleeding.

[5] = 1 mg/Kg infused via femoral vein

| Compound | EC50 [2] [nM] | also measured |
| --- | --- | --- |
| COc1ccc(S(=O)(=O)C2(C(=O)NO)CCC3(CCNCC3)C2)cc1Cl (stereo not drawn) [Example 1-107] | < 1000 | BT (bleeding time, mean) [1, 5]: +++** (5 minutes≦BT<10 minutes (+++)) |
| CNC(=O)c1ccc(Oc2ccc(S(=O)(=O)C3(C(=O)NO)CCC4(CCNCC4)C3)cc2)cc1 (stereo not drawn) [Example 1-08] | < 1000 | EC50 [3]: 1 to 1000 nM; BT (bleeding time, mean) [1, 5]: ++++**†† (BT<5 minutes (++++)) |
| O=C(Oc1ccc(S(=O)(=O)C2(C(=O)NO)CCC3(CCNCC3)C2)cc1)c1ccc(OC(F)(F)F)cc1 (stereo not drawn) [Example 1-102] | > 25000 | BT (bleeding time, mean) [1, 5]: ++* (10 minutes≦BT<20 minutes (++)) |
| O=C(O)c1ccc(Oc2ccc(S(=O)(=O)C3(C(=O)NO)CCC4(CCNCC4)C3)cc2)cc1 (stereo not drawn) [Example 1-07] | < 1000 | EC50 [3]: < 1 nM; BT (bleeding time, mean) [1, 5]: ++* (10 minutes≦BT<20 minutes (++)) |
| COc1ccc(Oc2ccc(S(=O)(=O)C3(C(=O)NO)CCC4(CCCN(C)C4)CC3)cc2)cc1 (stereo not drawn) [Example 1-02] | 10000 to 25000 | Bleeding time [4]: 39.2 ± 4.7 s |
| Aprotinin [reference compound] |  | BT (bleeding time, mean) ([1]; 10 mg/Kg infused via femoral vein): ++** (10 minutes≦BT<20 minutes (++)) |
| O=C(NO)C1(S(=O)(=O)c2ccc(NC3CCOCC3)cc2)CCC2(CCNCC2)C1 (stereo not drawn) [Example 1-96] | < 1000 | BT (bleeding time, mean) [1, 5]: +++** (5 minutes≦BT<10 minutes (+++)) |
| NC[C@H]1CC[C@H](C(=O)O)CC1 [TXA, tranexamic acid, reference compound] | 1000 to 10000 | EC50 [3]: 1 to 1000 nM; BT (bleeding time, mean) ([1]; 300 mg/Kg infused via femoral vein): ++** (10 minutes≦BT<20 minutes (++)) |
| O=C(NO)C1(S(=O)(=O)c2ccc(NC3CCCCC3)c(Cl)c2)CCC2(CCNCC2)C1 (stereo not drawn) [Example 1-80] | < 1000 | BT (bleeding time, mean) [1, 5]: +++**† (5 minutes≦BT<10 minutes (+++)) |
| O=C(NO)C1(S(=O)(=O)c2cccc(Oc3ccc(OC(F)(F)F)cc3)c2)CCC2(CCNCC2)C1 (stereo not drawn) [Example 1-123] | < 1000 |  |
| O=C(NO)C1(S(=O)(=O)c2ccccc2NC2CCCCC2)CCC2(CCNCC2)C1 (stereo not drawn) [Example 1-79] | < 1000 | BT (bleeding time, mean) [1, 5]: ++** (10 minutes≦BT<20 minutes (++)) |
| COC1CCC(Nc2ccc(S(=O)(=O)C3(C(=O)NO)CCC4(CCNCC4)C3)cc2)CC1 (stereo not drawn) [Example 1-77] | 1000 to 10000 |  |
| CNC(=O)c1ccc(C(=O)Oc2ccc(S(=O)(=O)C3(C(=O)NO)CCC4(CCNCC4)C3)cc2)cc1F (stereo not drawn) [Example 1-101] | 1000 to 10000 |  |
| O=C(NO)C1(S(=O)(=O)c2ccc(NCc3ccccc3)cc2)CCC2(CCNCC2)C1 (stereo not drawn) [Example 1-67] | < 1000 |  |
| COC1CCN(c2ccc(S(=O)(=O)C3(C(=O)NO)CCC4(CCNCC4)C3)cc2)CC1 (stereo not drawn) [Example 1-16, N-hydroxy-3-[4-(4-methoxypiperidin-1-yl)phenylsulfonyl]-8-azaspiro[4.5]decane-3-carboxamide] | 1000 to 10000 |  |
| COc1ccc(C(=O)Oc2ccc(S(=O)(=O)C3(C(=O)NO)CCC4(CCNCC4)C3)cc2Cl)cc1 (stereo not drawn) [Example 1-129] | 1000 to 10000 |  |
| COc1ccc(Oc2ccc(S(=O)(=O)C3(C(=O)NO)CCC4(CCN(c5ccccc5)CC4)C3)cc2)cc1 (stereo not drawn) [Example 1-34] | > 25000 |  |
| COC(=O)c1ccc(CNc2ccc(S(=O)(=O)C3(C(=O)NO)CCC4(CCNCC4)C3)cc2)cc1 (stereo not drawn) [Example 1-105] | > 25000 |  |
| CC(C)Oc1ccc(Oc2ccc(S(=O)(=O)C3(C(=O)NO)CCC4(CCNCC4)C3)cc2)cc1 (stereo not drawn) [Example 1-72] | 1000 to 10000 |  |
| COc1ccc(Oc2ccc(S(=O)(=O)C3(C(=O)NO)CCC4(CCNCC4)C3)cc2Cl)cc1 (stereo not drawn) [Example 1-56, N-hydroxy-3-(3-chloro-4-(4-methoxyphenoxyl)Phenylsulfonyl)-8-azaspiro[4.5]decane-3-carboxamide] | < 1000 |  |
| O=C(O)c1ccc(Oc2cccc(S(=O)(=O)C3(C(=O)NO)CCC4(CCNCC4)C3)c2)cc1 (stereo not drawn) [Example 1-127] | < 1000 |  |
| O=C(NO)C1(S(=O)(=O)c2ccc(OCc3ccncc3)cc2)CCC2(CCNCC2)C1 (stereo not drawn) [Example 1-100] | < 1000 |  |
| CNC(=O)c1ccc(Oc2cccc(S(=O)(=O)C3(C(=O)NO)CCC4(CCNCC4)C3)c2)cc1 (stereo not drawn) [Example 1-126] | > 25000 |  |

| Compound | EC50 [2] [nM] | also measured |
| --- | --- | --- |
| COc1ccc(Oc2ccc(S(=O)(=O)C3(C(=O)NO)CCC4(CCN(C5CC5)CC4)C3)cc2)cc1 (stereo not drawn) [Example 1-32] | 1000 to 10000 |  |
| O=C(NO)C1(S(=O)(=O)c2ccc(NC3CCCCC3)cc2)CCC2(CCNCC2)C1 (stereo not drawn) [Example 1-14] | < 1000 | EC50 [3]: 1 to 1000 nM; BT (bleeding time, mean) [1, 5]: ++++**†† (BT<5 minutes (++++)) |
| O=C(NO)C1(S(=O)(=O)c2ccc(OCc3cn[nH]c3)cc2)CCC2(CCNCC2)C1 (stereo not drawn) [Example 1-112] | < 1000 | BT (bleeding time, mean) [1, 5]: +++** (5 minutes≦BT<10 minutes (+++)) |
| O=C(NO)C1(S(=O)(=O)c2ccc(Oc3ccc(C(F)(F)F)cc3)cc2)CCC2(CCNCC2)C1 (stereo not drawn) [Example 1-21] | < 1000 |  |
| O=C(NO)C1(S(=O)(=O)c2ccc(Oc3cccc(OC(F)(F)F)c3)cc2)CCC2(CCNCC2)C1 (stereo not drawn) [Example 1-115] | < 1000 |  |
| O=C(Nc1ccc(S(=O)(=O)C2(C(=O)NO)CCC3(CCNCC3)C2)cc1)C1CCCCC1 (stereo not drawn) [Example 1-81, N-hydroxy-3-(4-(cyclohexanecarbonylamino)Phenylsulfonyl)-8-azaspiro[4.5]decane-3-carboxamide] | < 1000 |  |
| O=C(O)c1cccc(Oc2ccc(S(=O)(=O)C3(C(=O)NO)CCC4(CCNCC4)C3)cc2)c1 (stereo not drawn) [Example 1-75] | 1000 to 10000 |  |
| O=C(NO)C1(S(=O)(=O)c2ccc(Oc3ccc(OC(F)(F)F)c(F)c3)cc2)CCC2(CCNCC2)C1 (stereo not drawn) [Example 1-118] | < 1000 |  |
| Nc1ccc(S(=O)(=O)C2(C(=O)NO)CCC3(CCNCC3)C2)cc1 (stereo not drawn) [Example 1-61] | > 25000 |  |
| O=C(NO)C1(S(=O)(=O)c2ccc(NCC3CCCCC3)cc2)CCC2(CCNCC2)C1 (stereo not drawn) [Example 1-82] | < 1000 | BT (bleeding time, mean) [1, 5]: +++** (5 minutes≦BT<10 minutes (+++)) |
| O=C(NO)C1(S(=O)(=O)c2ccc(F)c(Cl)c2)CCC2(CCNCC2)C1 (stereo not drawn) [Example 1-116, N-hydroxy-3-(3-chloro-4-fluorophenylsulfonyl)-8-azaspiro[4.5]decane-3-carboxamide] | < 1000 |  |
| O=C(O)c1ccc(C(=O)Oc2ccc(S(=O)(=O)C3(C(=O)NO)CCC4(CCNCC4)C3)cc2)cc1 (stereo not drawn) [Example 1-86] | < 1000 |  |
| O=C(Oc1ccc(S(=O)(=O)C2(C(=O)NO)CCC3(CCNCC3)C2)cc1)C1CCCCC1 (stereo not drawn) [Example 1-98] | > 25000 |  |
| CC(=O)Nc1ccc(Oc2ccc(S(=O)(=O)C3(C(=O)NO)CCC4(CCNCC4)C3)cc2)cc1 (stereo not drawn) [Example 1-13] | < 1000 |  |
| O=C(NO)C1(S(=O)(=O)c2ccc(Oc3ccc(OC(F)(F)F)cc3)cc2)CCC2(CCNCC2)C1 (stereo not drawn) [Example 1-73] | < 1000 | EC50 [3]: 1000 to 10000 nM; BT (bleeding time, mean) [1, 5]: ++++**†† (BT<5 minutes (++++)) |
| O=C(NO)C1(S(=O)(=O)c2cccc(OCc3ccc(OC(F)(F)F)cc3)c2)CCC2(CCNCC2)C1 (stereo not drawn) [Example 1-130] | 1000 to 10000 |  |
| O=C(NO)C1(S(=O)(=O)c2ccc(NC3CCCC3)cc2)CCC2(CCNCC2)C1 (stereo not drawn) [Example 1-97] | 1000 to 10000 |  |
| COC(=O)c1ccc(Oc2ccc(S(=O)(=O)C3(C(=O)NO)CCC4(CCNCC4)C3)cc2)cc1 (stereo not drawn) [Example 1-06] | > 25000 |  |
| O=C(NO)C1(S(=O)(=O)c2ccc(OCc3ccccc3)c(Cl)c2)CCC2(CCNCC2)C1 (stereo not drawn) [Example 1-122] | > 25000 |  |
| COc1ccc(Oc2ccc(S(=O)(=O)C3(C(=O)NO)CCC4(CCN(CC(=O)O)CC4)C3)cc2)cc1 (stereo not drawn) [Example 1-29] | 1000 to 10000 |  |
| COc1ccc(Oc2ccc(S(=O)(=O)C3(C(=O)NO)CCC4(CCN(Cc5ccncc5)CC4)C3)cc2)cc1 (stereo not drawn) [Example 1-37] | > 25000 |  |
| O=C(NO)C1(S(=O)(=O)c2ccc(NCC3CCC(F)(F)CC3)cc2)CCC2(CCNCC2)C1 (stereo not drawn) [Example 1-125] | < 1000 |  |
